Measurements reported in ChEMBL document CHEMBL6074637, “Sidechain structure-activity relationships of cyclobutane-based small molecule αvβ3 antagonists” (RSC Med Chem, 2024).

What was measured:
[1] = Cytotoxicity against alphavbeta3-expressing human U-87 MG cells assessed as reduction in cell viability measured after 96 hrs by MTT assay; assay type: toxicity, cell-based; details: u-87mg atcc
SK-MEL-2 = assay: Cytotoxicity against alphavbeta3-expressing human SK-MEL-2 cells assessed as reduction in cell viability measured after 96 hrs by MTT assay; assay type: toxicity, cell-based; details: sk-mel-2, 96 h
[2] = biological target: T1, Integrin alpha-V/beta-3 (Homo sapiens) (UniProt P05106+P06756); assay: Antagonist activity at alphavbeta3 integrin-mediated human SK-MEL-2 cell adhesion to fibronectin at 50 uM incubated with cells for 4 hrs followed by incubation with fibronectin in humidified chamber for 1 hr followed by incubation for overnight at 37 degC by MTT assay; assay type: cell-based
[3] = Toxicity in C57BL/6 immunocompetent mouse assessed as body weight upto 300 mg/kg, ip administered daily for 4 days; assay type: organism-based; details: in vivo, 96 h, time 4 day
[4] = biological target: T1, Integrin alpha-V/beta-3 (Homo sapiens); assay: Antagonist activity at alphavbeta3 integrin-mediated human SK-MEL-2 cell adhesion to fibronectin at 5 uM incubated with cells for 4 hrs followed by incubation with fibronectin in humidified chamber for 1 hr followed by incubation for overnight at 37 degC by MTT assay; assay type: cell-based; details: filed as antagonist

SMILES: COC(=O)[C@H](CC(=O)N[C@H]1C[C@@H](CCc2ccc3cccnc3n2)C1)NS(=O)(=O)c1ccccc1
- Activity [1]: Toxic
- Activity (SK-MEL-2): Toxic

SMILES: CC(C)(C)OC(=O)C[C@H](NS(=O)(=O)c1ccccc1)C(=O)N[C@H]1C[C@@H](CCc2ccc3cccnc3n2)C1
- Activity (SK-MEL-2): Toxic
- inhibition [2]: Not determined; Greater Than 75% Inhibition In Initial Trial Experiment, Not Tested Further At This Concentration

SMILES: COC(=O)[C@H](CCNC(=O)[C@H]1C[C@@H](CCc2ccc3cccnc3n2)C1)NS(=O)(=O)c1ccccc1
- Activity (SK-MEL-2): Toxic
- inhibition [2]: Not determined; Greater Than 75% Inhibition In Initial Trial Experiment, Not Tested Further At This Concentration

SMILES: O=C(O)C[C@H](NS(=O)(=O)c1ccccc1)C(=O)N[C@H]1C[C@@H](CCc2ccc3cccnc3n2)C1
- Activity (SK-MEL-2): Toxic

SMILES: CNc1cccc(CC[C@H]2C[C@@H](C(=O)NC[C@H](NS(=O)(=O)c3ccccc3)C(=O)OC)C2)n1
- Activity [1]: Toxic
- Activity (SK-MEL-2): Toxic
- inhibition [2]: Not determined; Greater Than 75% Inhibition In Initial Trial Experiment, Not Tested Further At This Concentration

SMILES: O=C1C[C@H](NS(=O)(=O)c2ccccc2)C(=O)N1[C@H]1C[C@@H](CCc2ccc3c(n2)NCCC3)C1
- Activity [1]: Toxic
- Activity (SK-MEL-2): Toxic

SMILES: COC(=O)[C@H](CCNC(=O)[C@H]1C[C@@H](Cc2ccc3c(n2)NCCC3)C1)NS(=O)(=O)c1c(C)cc(C)cc1C
- Activity [1]: Toxic
- Activity (SK-MEL-2): Toxic
- inhibition [2]: Not determined; Greater Than 75% Inhibition In Initial Trial Experiment, Not Tested Further At This Concentration

SMILES: CC(C)(C)OC(=O)C[C@H](NS(=O)(=O)c1ccccc1)C(=O)N[C@H]1C[C@@H](CCc2ccc3c(n2)NCCC3)C1
- Activity (SK-MEL-2): Toxic

SMILES: Cc1cc(C)c(S(=O)(=O)N[C@H]2CC(=O)N([C@H]3C[C@@H](CCc4ccc5c(n4)NCCC5)C3)C2=O)c(C)c1
- Activity (SK-MEL-2): Toxic

SMILES: COC(=O)[C@H](CCNC(=O)[C@H]1C[C@@H](Cc2ccc3cccnc3n2)C1)NS(=O)(=O)c1ccccc1
- Activity [1]: Toxic
- Activity (SK-MEL-2): Toxic

SMILES: O=C(O)C[C@H](NS(=O)(=O)c1ccccc1)C(=O)N[C@H]1C[C@@H](CCc2ccc3c(n2)NCCC3)C1
- Activity (SK-MEL-2): Toxic
- inhibition [2]: Not determined; Greater Than 75% Inhibition In Initial Trial Experiment, Not Tested Further At This Concentration

SMILES: COC(=O)[C@H](CC(=O)N[C@H]1C[C@@H](CCc2ccc3cccnc3n2)C1)NS(=O)(=O)c1c(C)cc(C)cc1C
- Activity [1]: Toxic
- Activity (SK-MEL-2): Toxic

SMILES: COC(=O)[C@H](CCNC(=O)[C@H]1C[C@@H](Cc2ccc3c(n2)NCCC3)C1)NS(=O)(=O)c1ccccc1
- Activity [1]: Toxic
- Activity (SK-MEL-2): Toxic
- inhibition [2]: Not determined; Greater Than 75% Inhibition In Initial Trial Experiment, Not Tested Further At This Concentration

SMILES: CNc1cccc(CC[C@H]2C[C@@H](C(=O)NC[C@H](NS(=O)(=O)c3c(C)cc(C)cc3C)C(=O)OC)C2)n1
- Activity [3]: Non-toxic
- Activity [1]: Toxic
- Activity (SK-MEL-2): Toxic

SMILES: COC(=O)[C@H](CCNC(=O)[C@H]1C[C@@H](CCc2ccc3cccnc3n2)C1)NS(=O)(=O)c1c(C)cc(C)cc1C
- Activity [1]: Toxic
- Activity (SK-MEL-2): Toxic
- inhibition [2]: Not determined; Greater Than 75% Inhibition In Initial Trial Experiment, Not Tested Further At This Concentration

SMILES: COC(=O)[C@H](CCNC(=O)[C@H]1C[C@@H](CCc2ccc3c(n2)NCCC3)C1)NS(=O)(=O)c1c(C)cc(C)cc1C
- Activity [1]: Toxic
- Activity (SK-MEL-2): Toxic
- inhibition [2]: Not determined; Greater Than 75% Inhibition In Initial Trial Experiment, Not Tested Further At This Concentration

SMILES: COC(=O)[C@H](CNC(=O)[C@H]1C[C@@H](CCc2ccc3c(n2)NCCC3)C1)NS(=O)(=O)c1ccccc1
- inhibition [4]: 59.5%

SMILES: COC(=O)[C@H](CCNC(=O)[C@H]1C[C@@H](Cc2ccc3cccnc3n2)C1)NS(=O)(=O)c1c(C)cc(C)cc1C
- Activity [1]: Toxic

SMILES: COC(=O)[C@H](CCNC(=O)[C@H]1C[C@@H](CCc2ccc3c(n2)NCCC3)C1)NS(=O)(=O)c1ccccc1
- Activity (SK-MEL-2): Toxic
- inhibition [2]: Not determined; Greater Than 75% Inhibition In Initial Trial Experiment, Not Tested Further At This Concentration

SMILES: Cc1cc(C)c(S(=O)(=O)N[C@H]2CC(=O)N([C@H]3C[C@@H](CCc4ccc5cccnc5n4)C3)C2=O)c(C)c1
- Activity (SK-MEL-2): Toxic

SMILES: O=C1C[C@H](NS(=O)(=O)c2ccccc2)C(=O)N1[C@H]1C[C@@H](CCc2ccc3cccnc3n2)C1
- Activity [1]: Toxic
- Activity (SK-MEL-2): Toxic

SMILES: COC(=O)[C@H](CC(=O)N[C@H]1C[C@@H](CCc2ccc3c(n2)NCCC3)C1)NS(=O)(=O)c1ccccc1
- Activity [1]: Toxic
- Activity (SK-MEL-2): Toxic

SMILES: COC(=O)[C@H](CC(=O)N[C@H]1C[C@@H](CCc2ccc3c(n2)NCCC3)C1)NS(=O)(=O)c1c(C)cc(C)cc1C
- Activity [1]: Toxic
- Activity (SK-MEL-2): Toxic
